Test results: patent US9440964B2, “Pesticidal compositions and processes related thereto” (Dow AgroSciences LLC, priority 2011, dated 2016)
Like-named read-outs stand apart in the source and are kept apart here.

Legend:
BAW (Spodoptera exigua) = assay: Bioassay on Beet Armyworm (BAW), 128-well diet tray; format: in vivo; details: Spodoptera exigua, 168 h, read-out: Rating BAW
Description: (§1) Certain molecules disclosed in this document were tested against BAW and CEW using procedures described in the following examples. In the reporting of the results, the “BAW & CEW Rating Table” was used (See Table Section).
Bioassays on BAW (Spodoptera exigua)
(§2) Trays were covered with a clear self-adhesive cover and held at 25° C., 14:10 light-dark for five to seven days. Percent mortality was recorded for the larvae in each well; activity in the eight wells was then averaged. The results are indicated in the table entitled “Table ABC: Biological Results” (See Table Section).

CEW (Helicoverpa zea) = assay: Bioassay on Corn Earworm (CEW), 128-well diet tray; format: in vivo; details: Helicoverpa zea, 168 h; for pest or weed control at 0.5 µg/cm2: 0.5 μg/cm^2 on diet, read-out: Rating CEW (*Tested at 0.5 μg/cm^2); for pest or weed control at 50 µg/cm2: read-out: Rating CEW
Description: as §1
Bioassays on CEW (Helicoverpa zea)
as §2

[1] = percent mortality, second instar larvae, 50 μg/cm^2 on diet, five to seven days
[2] = percent mortality, second instar larvae, five to seven days

| Structure (SMILES) | pest or weed control at 50 µg/cm2 (BAW (Spodoptera exigua); [1]) [%] | pest or weed control at 0.5 µg/cm2 (CEW (Helicoverpa zea); [2]) [%] | pest or weed control at 50 µg/cm2 (CEW (Helicoverpa zea); [1]) [%] | pest or weed control at 50 µg/cm2 (BAW (Spodoptera exigua)) [%] | pest or weed control at 50 µg/cm2 (CEW (Helicoverpa zea)) [%] |
| --- | --- | --- | --- | --- | --- |
| CC(C)c1ccccc1N1C(=O)CS/C1=N\C(=O)Nc1ccc(-c2ncn(-c3ccc(OC(F)(F)C(F)(F)F)cc3)n2)cc1 [Molecule A115] | 50 to 100 | 50 to 100 |  |  |  |
| O=C(/N=C(\S)Nc1ccccc1C1CC1)Nc1ccc(-c2ncn(-c3ccc(OC(F)(F)F)cc3)n2)cc1 [Molecule A63] | 50 to 100 | 50 to 100 |  |  |  |
| CC(C)C(=O)OCS/C(=N/C(=O)Nc1ccc(-c2ncn(-c3ccc(OC(F)(F)F)cc3)n2)cc1)Nc1c(Cl)cccc1Cl [Molecule A58] | 50 to 100 |  | 50 to 100 |  |  |
| Cc1ccc(C(C)C)c(N2C(=O)CS/C2=N\C(=O)Nc2ccc(-c3ncn(-c4ccc(OC(F)(F)F)cc4)n3)cc2)c1 [Molecule A87] | 50 to 100 | 50 to 100 |  |  |  |
| Cc1cc(C)c(N2C(=O)C(C)S/C2=N\C(=O)Nc2ccc(-c3ncn(-c4ccc(OC(F)(F)F)cc4)n3)cc2)c(C)c1 (stereo not shown) [Molecule A37] | 50 to 100 |  | 50 to 100 |  |  |
| CC(C)c1ccccc1N1C(=O)CS/C1=C\C(=O)Nc1ccc(-c2ncn(-c3ccc(OC(F)(F)F)cc3)n2)cc1 [Molecule A24, (Z)-2-(3-(2-isopropylphenyl)-4-oxothiazolidin-2-ylidene)-N-(4-(1-(4-(trifluoromethoxy)phenyl)-1H-1,2,4-triazol-3-yl)phenyl)acetamide] | 50 to 100 |  | 50 to 100 |  |  |
| COc1ccc(Cl)cc1N1C(=O)CS/C1=N\C(=O)Nc1ccc(-c2ncn(-c3ccc(OC(F)(F)F)cc3)n2)cc1 [Molecule A111] | 50 to 100 | 50 to 100 |  |  |  |
| CC(C)c1ccc(F)cc1N/C(S)=N/C(=O)Nc1ccc(-c2ncn(-c3ccc(OC(F)(F)F)cc3)n2)cc1 [Molecule A82] | 50 to 100 | 50 to 100 |  |  |  |
| CC(C)C(=O)OCS/C(=N\C(=O)Nc1ccc(-c2ncn(-c3ccc(OC(F)(F)C(F)(F)F)cc3)n2)cc1)Nc1ccccc1C(C)C [Molecule A6, (Z)—((N-(2-Isopropylphenyl)-N′-((4-(1-(4-(pentafluoroethoxy)phenyl)-1H-1,2,4-triazol-3-yl)phenyl)carbamoyl)carbamimidoyl)thio)methyl isobutyrate] | 50 to 100 |  | 50 to 100 |  |  |
| CCc1ccccc1N/C(=N\C(=O)Nc1ccc(-c2ncn(-c3ccc(OC(F)(F)F)cc3)n2)cc1)SCOC(=O)C(C)C [Molecule A57] | 50 to 100 |  | 50 to 100 |  |  |
| O=C(/N=C1\SCC(=O)N1c1ccc(Cl)cc1Cl)Nc1ccc(-c2ncn(-c3ccc(OC(F)(F)F)cc3)n2)cc1 [Molecule A92] | 50 to 100 | 50 to 100 |  |  |  |
| Cc1ccc(Cl)cc1N/C(S)=N/C(=O)Nc1ccc(-c2ncn(-c3ccc(OC(F)(F)F)cc3)n2)cc1 [Molecule A72] | 50 to 100 | 50 to 100 |  |  |  |
| O=C(/N=C1\SCC(=O)N1c1ccccc1Cc1ccccc1)Nc1ccc(-c2ncn(-c3ccc(OC(F)(F)F)cc3)n2)cc1 [Molecule A105] | 50 to 100 | 50 to 100 |  |  |  |
| Cc1cc(C)c(N2C(=O)CS/C2=N\C(=O)Nc2ccc(-c3ncn(-c4ccc(OC(F)(F)F)cc4)n3)cc2)c(C)c1 [Molecule A36] | 50 to 100 |  | 50 to 100 |  |  |
| Cc1ccccc1N/C(=N\C(=O)Nc1ccc(-c2ncn(-c3ccc(OC(F)(F)F)cc3)n2)cc1)SCOC(=O)C(C)C [Molecule A60] | 50 to 100 |  | 50 to 100 |  |  |
| CC(C)C(=O)OCS/C(=N/C(=O)Nc1ccc(-c2ncn(-c3ccc(OC(F)(F)F)cc3)n2)cc1)Nc1c(F)cccc1F [Molecule A61] | 50 to 100 |  | 50 to 100 |  |  |
| Cc1cccc(C)c1N/C(O)=C/C(=O)Nc1ccc(-c2ncn(-c3ccc(OC(F)(F)F)cc3)n2)cc1 [Molecule A32, (Z)-3-(2,6-dimethylphenylamino)-3-hydroxy-I-(4-(1-(4-(trifluoromethoxy)phenyl)-1H-1,2,4-triazol-3-yl)phenyl)acrylamide] | 50 to 100 |  | 50 to 100 |  |  |
| CC(C)c1ccccc1N/C(S)=N/C(=O)Nc1ccc(-c2ncn(-c3ccc(OC(F)(F)F)cc3)n2)cc1 [Molecule A48] | 50 to 100 |  | 50 to 100 |  |  |

| Structure (SMILES) | pest or weed control at 50 µg/cm2 (BAW (Spodoptera exigua); [1]) [%] | pest or weed control at 0.5 µg/cm2 (CEW (Helicoverpa zea); [2]) [%] | pest or weed control at 50 µg/cm2 (CEW (Helicoverpa zea); [1]) [%] | pest or weed control at 50 µg/cm2 (BAW (Spodoptera exigua)) [%] | pest or weed control at 50 µg/cm2 (CEW (Helicoverpa zea)) [%] |
| --- | --- | --- | --- | --- | --- |
| O=C(/N=C(\S)Nc1ccccc1Cc1ccccc1)Nc1ccc(-c2ncn(-c3ccc(OC(F)(F)F)cc3)n2)cc1 [Molecule A101] | 50 to 100 | 50 to 100 |  |  |  |
| Cc1cccc(Cl)c1N/C(S)=N/C(=O)Nc1ccc(-c2ncn(-c3ccc(OC(F)(F)F)cc3)n2)cc1 [Molecule A70] | 50 to 100 | 50 to 100 |  |  |  |
| CC(C)c1c(F)cccc1N/C(S)=N/C(=O)Nc1ccc(-c2ncn(-c3ccc(OC(F)(F)F)cc3)n2)cc1 [Molecule A107] | 50 to 100 | 50 to 100 |  |  |  |
| CC(C)c1ccc(F)cc1N1C(=O)CS/C1=N\C(=O)Nc1ccc(-c2ncn(-c3ccc(OC(F)(F)F)cc3)n2)cc1 [Molecule A86] | 50 to 100 | 50 to 100 |  |  |  |
| CCc1cccc(C)c1N1C(=O)CS/C1=N\C(=O)Nc1ccc(-c2ncn(-c3ccc(OC(F)(F)F)cc3)n2)cc1 [Molecule A103] | 50 to 100 | 50 to 100 |  |  |  |
| COc1ccc(NC(NC(=O)Nc2ccc(-c3ncn(-c4ccc(OC(F)(F)F)cc4)n3)cc2)SCOC(=O)C(C)C)c(C)c1 (stereo not shown) [Molecule A56] | 50 to 100 |  | 50 to 100 |  |  |
| CC(C)c1c(F)cccc1N1C(=O)CS/C1=N\C(=O)Nc1ccc(-c2ncn(-c3ccc(OC(F)(F)F)cc3)n2)cc1 [Molecule A109] | 50 to 100 | 50 to 100 |  |  |  |
| Cc1cccc(C)c1N/C(=N/C(=O)Nc1ccc(-c2ncn(-c3ccc(C(F)(F)F)cc3)n2)cc1)SCOC(=O)CNC(=O)OCc1ccccc1 [Molecule A8, (Z)—((N-(2,6-Dimethylphenyl)-N′-((4-(1-(4-(trifluoromethyl)phenyl)-1H-1,2,4-triazol-3-yl)phenyl)carbamoyl)carbamimidoyl)thio)methyl 2-(((benzyloxy)carbonyl)amino)acetate] |  |  |  | 50 to 100 | 50 to 100 |
| COc1ccc(N/C(=N/C(=O)Nc2ccc(-c3ncn(-c4ccc(C(F)(F)F)cc4)n3)cc2)SCOC(=O)C(C)C)c(C)c1 [Molecule A1, (E)-((N′-(4-methoxy-2-methylphenyl)-N-((4-(1-(4-(trifluoromethyl)phenyl)-1H-1,2,4-triazol-3-yl)phenyl)carbamoyl)carbamimidoyl)thio) methyl isobutyrate] | 50 to 100 |  | 50 to 100 |  |  |
| CC(C)c1ccccc1N/C(S)=N/C(=O)Nc1ccc(-c2ccn(-c3ccc(OC(F)(F)F)cc3)n2)cc1 [Molecule A114, N-[[(2-isopropyllphenyl)amino]thioxomethyl]-N′-((4-(1-(4-(trifluoromethoxy)phenyl)-1H-pyrazol-3-yl)phenyl))urea] | 50 to 100 | 50 to 100 |  |  |  |
| CC(C)n1nccc1N/C(S)=N/C(=O)Nc1ccc(-c2ncn(-c3ccc(OC(F)(F)F)cc3)n2)cc1 [Molecule A119] | 50 to 100 | 0 to 50 |  |  |  |
| CC(=O)/C(C(=O)Nc1ccc(-c2ncn(-c3ccc(OC(F)(F)F)cc3)n2)cc1)=C(/S)Nc1ccccc1C(C)C [Molecule A20, (E)-3-hydroxy-2-((2-isopropylphenyl)carbamothioyl)-N-(4-(1-(4-(trifluoromethoxy)phenyl)-1H-1,2,4-triazol-3-yl)phenyl)but-2-enamide] | 50 to 100 |  | 50 to 100 |  |  |
| CCc1cccc(C)c1N/C(=N\C(=O)Nc1ccc(-c2ncn(-c3ccc(OC(F)(F)F)cc3)n2)cc1)SCOC(=O)C(C)C [Molecule A55] | 50 to 100 |  | 50 to 100 |  |  |
| CC(C)c1ccccc1N1C(=O)CS/C1=N\C(=O)Nc1ccc(-c2ncn(-c3ccc(OC(F)(F)F)cc3)n2)cc1 [Molecule A19, (Z)-1-(3-(2-isopropylphenyl)-4-oxothiazolidin-2-ylidene)-3-(4-(1-(4-(trifluoromethoxy)phenyl)-1H-1,2,4-triazol-3-yl)phenyl)urea] | 50 to 100 |  | 50 to 100 |  |  |
| CCc1cccc(C)c1N/C(S)=N/C(=O)Nc1ccc(-c2ncn(-c3ccc(OC(F)(F)F)cc3)n2)cc1 [Molecule A97] | 50 to 100 | 50 to 100 |  |  |  |
| CC(C)n1nccc1N1C(=O)CS/C1=N\C(=O)Nc1ccc(-c2ncn(-c3ccc(OC(F)(F)F)cc3)n2)cc1 [Molecule A121] | 50 to 100 | 50 to 100 |  |  |  |
| CCCc1ccccc1N/C(S)=N/C(=O)Nc1ccc(-c2ncn(-c3ccc(OC(F)(F)F)cc3)n2)cc1 [Molecule A64] | 50 to 100 | 50 to 100 |  |  |  |
